US7279300B2, “Protozoan rhomboid proteins” (priority 2002, dated 2007)

How the values were obtained:
[1] = test system: Pf rhomboid-3; test: Pf rhomboid-3 cleavage of GFP-tagged Spitz co-expressed in COS cells (western blot); assay type: cell-based, Plasmodium falciparum; conditions: serum-free medium supplemented with inhibitor, substrate Spitz
Procedure: (§1) Plasmodium rhomboid activity was determined using published methods described in Urban et al Cell (2001) 107(2): 173-82 and WO02/093177. Briefly, Pf rhomboids-1 and -3 were co-expressed with GFP-tagged Spitz under control of a CMV promoter; as follows; COS cells were grown in DMEM medium (supplemented with 10% foetal calf serum), and transfected with FuGENE 6 Transfection Reagent (Roche). Cells were co-transfected in 35 mm culture wells with 25-250 ng of (a) rhomboid construct comprising the Pf-rhomboid-1 or -3 coding sequence inserted into the vector pcDNA 3.1+ (Invitrogen), and (b) substrate construct comprising the GFP-Spitz coding sequence inserted into pcDNA 3.1+ (Invitrogen). Empty plasmid was used to bring the total DNA to 1 μg per well. Construct (b) was transfected into COS cells in the absence of construct (a) as a control for endogenous cleavage of the substrate. 24-30 hours post-transfection, the medium was replaced with serum-free medium; this was harvested 24 hours later and cells were lysed in SDS-sample buffer. For some experiments, the serum-free medium was supplemented with the metalloprotease inhibitor batimastat (British Biotech) or ilomostat (Calbiochem) to minimize endogenous substrate cleavage in the assay. For inhibitor assays, a test compound may be included in the serum-free medium. […]

[2] = test system: Pf rhomboid-1; test: Pf rhomboid-1 cleavage of GFP-tagged Spitz co-expressed in COS cells (western blot); assay type: cell-based, Plasmodium falciparum; conditions: serum-free medium supplemented with inhibitor, substrate Spitz
Procedure: as §1

## CNC(=O)[C@H](Cc1ccccc1)NC(=O)[C@H](CC(C)C)[C@H](CSc1cccs1)C(=O)NO [batimastat]
[1]
  inhibition of Pf rhomboid-3 cleavage of Spitz: not inhibited
[2]
  inhibition of Pf rhomboid-1 cleavage of Spitz: not inhibited
